Publication PMC7283928, “In vitro Mechanistic Exploration of Novel Spiropyrrolidine Heterocyclic Hybrids as Anticancer Agents” (Frontiers in Chemistry, 2020)
Where two headings read alike, the source gives them in different places.

How the values were obtained:
[1] = tested on: Jurkat human T lymphocyte cells; experiment: MTT cell viability and proliferation assay, Jurkat cells; assay type: cell-based; details: for IC50: Homo sapiens, MTT
Protocol: (§1) In order to study the molecular biology effects of synthesized spiropyrrolidine heterocyclic hybrids, we have used the in vitro toxicology tests and for that, two different cell types, each of cancer and non-cancer origin were employed. The non-cancer cell lines include the L929 mouse fibroblasts and MCF10 breast cells, while the cancer cell lines are A549 human alveolar basal epithelial cells and Jurkat human T lymphocyte cells. […] All the biological studies were carried by selecting Camptothecin (CPT) as a positive control and the cells of no treatment as the negative control. The reason for selecting this particular compound as a positive control is that it is a well-known anticancer agent and acts by the mechanism of topoisomerase I inhibition along with the DNA cleavage, subsequent inhibition of litigation, and finally leads to DNA strand breaks. The detailed procedures for the cell culturing and assay protocols were mentioned elaborately in our earlier publications (Bwatanglang et al., [2016a],[b]; Kumar et al., [2018]). Each experiment was repeated thrice and the results expressed as the mean ± standard deviation of all the data values. From the graph, the ^* and ^** corresponds to p < 0.05 and p < 0.01 vs. the untreated-control measurements.
(§2) Also, the loss of viability seems to be increased with an increase in the concentration and incubation period and this provides the preliminary information that the tested compounds are maintaining some levels of therapeutic behavior toward the cancer cells and if it can be guided carefully, can lead to the anticancer activity. […] This difference in the sensitivity of two cancer cells to the same testing compound can be attributed to the changes in the resistive response of each cell types which is supported by the intracellular protein mechanisms (Mohammad et al., [2014]; Bwatanglang et al., [2017]). Since the amount of intracellular proteins secreted by the cells are unique to each individual cell type and so in that way some cells may react very fast as compared to the others. Also, the efficiency of any chemotherapeutic agent is decided by its ability to reduce the cell count at the earliest possible time and in that way we have identified the A549 cells to be the highly responsive cell type to the compound 5e over a 24 h period as compared to the other compounds, cells, and time periods. The visual observation of cells by means of microscopic observation also be confirming for a decrease in the number of cells for the compound 5e treated cells as against the positive control of CPT (30 μM) and negative control of without any treatment (Figures S11, S11a). […] In a general way, our interest is with the therapeutic agent of higher efficiency at the shortest exposure period and so we carried the following mechanistic studies linked to the cell death for the compound 5e at the 24 h exposure period only.

[2] = tested on: A549 human alveolar basal epithelial cells; experiment: MTT cell viability and proliferation assay, A549 cells; assay type: cell-based
Protocol: as §1, §2

[3] = MTT cell viability assay, non-cancer L929 cells; assay type: cell-based; details: mouse, L929 mouse fibroblast cells (non-cancer)
Protocol: as §1, with “measurements. […]” for “measurements.”

A549 cells = experiment: Apoptosis assay (PI / Annexin V-FITC) in A549 cells; assay type: cell-based, human; details: for live cells: lower left quadrant; for apoptotic cells: lower right quadrant; for late apoptotic or early necrosis cells: upper right quadrant; for cells experiencing the apoptotic pathway: A549, 48 h incubation (Figure S12)
Protocol: as §1
The compound 5e induced apoptotic pathway for A549 treated cells over a 24 h period is compared against the positive (CPT, 30 μM) and negative controls and the results are shown in Figure 3. Similarly, the apoptosis study over the 48 h exposure period is shown in the supporting information of Figure S12. As compared to the behavior of cells shown in Figures 3A-1,B-1, the compound 5e treated cells (C-1) are experiencing a significant amount of apoptotic pathway. […] These numbers for the compound 5e treated cells are getting shifted to 39% of live cells, 40% apoptotic, and 18% late apoptotic or early necrosis pathways. The observation of only 9% apoptotic cells for the CPT treated cells while 40% for the 5e treated cells provides a preliminary indication of the way of handling the cancer cells by the compound 5e. Since the CPT acts directly onto the cancer cells and responsible for the accidental or irreversible pathway of reducing the cancer cell number and however, the compound 5e works in a systematic way and induces the cancer cell death almost similar to CPT. […] Since the cells which are experiencing the apoptotic pathway can be reversible and in that way the healthy normal cells can be reverted to their normal stage and at the same time the cancer cells can be molded to the late apoptotic or early necrosis pathways by applying some physiological changes to the cells.
Figure 3 Comparison of the apoptosis assay results for 5e treated cells along with the CPT treated and untreated cells over 24 h period for A549 cells. From the figure, A-1 & A-2 corresponds to the negative control, B-1 & B-2 for the positive control of CPT, and C-1 & C-2 for our testing sample 5e.

[4] = MTT cell viability assay, non-cancer MCF10 cells; assay type: cell-based; details: human, MCF10 breast cells (non-cancer)
Protocol: as §1, with “measurements. […]” for “measurements.”

caspases in A549 cells = experiment: Caspase activity by fluorescence microscopy in A549 cells; assay type: cell-based, human; details: A549, 24 h, 5e at IC50, compared with CPT treated cells (Figure 4B)
Protocol: as §1, with “The detailed procedures for the cell culturing and assay protocols were mentioned elaborately in our earlier publications (Bwatanglang et al., [2016a],[b]; Kumar et al., [2018]).” left out, “From the graph, the ^* and ^** corresponds to p < 0.05 and p < 0.01 vs. the untreated-control measurements.” left out
Based on the results provided by the apoptotic assay, compound 5e was further tested toward the role of caspases as these are the proteins which get released in response to the specific death stimuli. […] Similarly, the observation of no such green fluorescence in the cytoplasm of cells shown in Figure 4A means that there is no initiation of such pathways in that particular culture.

[5] = 24 h incubation, read-out: IC50 μM (24 h) Jurkat
[6] = 48 h incubation, read-out: IC50 μM (48 h) Jurkat
[7] = 24 h incubation, read-out: IC50 μM (24 h) A549
[8] = 48 h incubation, read-out: IC50 μM (48 h) A549
[9] = A549, 24 h, 5e at IC50 (55 μM), CPT 30 μM

SMILES	IC50 [1, 5]	IC50 [1, 6]	IC50 [2, 7]	IC50 [2, 8]	other results
CN1C(Cc2ccc(O)cc2)C([N+](=O)[O-])C(c2ccc(Cl)cc2)C12C(=O)c1cccc3cccc2c13 (stereo not shown) [C00003]	63.2 ± 3.2 µM	59.5 ± 4.1 µM	77.3 ± 4.56 µM	52.3 ± 2.2 µM	–
CN1C(Cc2ccc(O)cc2)C([N+](=O)[O-])C(c2cccc([N+](=O)[O-])c2)C12C(=O)c1cccc3cccc2c13 (stereo not shown) [5f, Spiro[acenaphthene-2′.2-pyrrolidin]-1′-one]	–	–	–	–	loss of cell viability ([1]; highest concentration of 100 μM, 48 h): 90%
CN1C(Cc2ccc(O)cc2)C([N+](=O)[O-])C(c2cccc([N+](=O)[O-])c2)C12C(=O)c1cccc3cccc2c13 (stereo not shown) [C00006]	92.5 ± 2.8 µM	62.5 ± 4.4 µM	70.7 ± 3.45 µM	41.2 ± 2.4 µM	–
CC[C@@]1(O)C(=O)OCc2c1cc1n(c2=O)Cc2cc3ccccc3nc2-1 [CPT, Camptothecin]	–	–	–	–	mortality at 30 μM [3]: ~50%; M2 (cells experiencing the apoptotic pathway) (A549 cells; [9]): 48%; live cells (A549 cells; [9]): 45%; apoptotic cells (A549 cells; [9]): 9%; late apoptotic or early necrosis cells (A549 cells; [9]): 36%; cells experiencing the apoptotic pathway (A549 cells): 63%; mortality at 30 μM [4]: ~50%
COc1ccc(C2C([N+](=O)[O-])C(Cc3ccc(O)cc3)N(C)C23C(=O)c2cccc4cccc3c24)cc1 (stereo not shown) [C00005]	81.2 ± 3.1 µM	61.2 ± 4.6 µM	–	–	–
CN1C(Cc2ccc(O)cc2)C([N+](=O)[O-])C(c2ccccc2)C12C(=O)c1cccc3cccc2c13 (stereo not shown) [C00001]	65.6 ± 2.1 µM	31.4 ± 2.3 µM	84.2 ± 4.2 µM	68.5 ± 3.1 µM	–
Cc1ccc(C2C([N+](=O)[O-])C(Cc3ccc(O)cc3)N(C)C23C(=O)c2cccc4cccc3c24)cc1 (stereo not shown) [C00004]	78.2 ± 2.6 µM	47.5 ± 3.8 µM	82.1 ± 2.55 µM	70.2 ± 2.8 µM	–
COc1ccc(C2C([N+](=O)[O-])C(Cc3ccc(O)cc3)N(C)C23C(=O)c2cccc4cccc3c24)cc1 (stereo not shown) [5e, Spiro[acenaphthene-2′.2-pyrrolidin]-1′-one]	–	–	55.2 ± 2.15 µM	20.5 ± 3.6 µM	live cells (A549 cells; [9]): 39%; apoptotic cells (A549 cells; [9]): 40%; late apoptotic or early necrosis cells (A549 cells; [9]): 18%; cells experiencing the apoptotic pathway (A549 cells): 88%; caspase release (green fluorescence in cytoplasm) (caspases in A549 cells): higher than the corresponding cells shown in Figure 4B
CN1C(Cc2ccc(O)cc2)C([N+](=O)[O-])C(c2ccc(Br)cc2)C12C(=O)c1cccc3cccc2c13 (stereo not shown) [C00002]	82.4 ± 4 µM	52.2 ± 3.5 µM	79.5 ± 3.15 µM	36.2 ± 4.5 µM	–
